Laboratory results from PubChem BioAssay AID1963446 (Molecular Pharmacology Branch, DTP, NCI, 2024).

Tested on: 993429-296-R-J1-PDC complex spheroid growth, percent test/control
Test: Anticancer human tumor 993429-296-R-J1-PDC patient-derived uterine sarcoma cell line growth inhibition [Asc]
Settings: for IC50: curve of first compound; for viability, T/C: stronger effect = lower value
Summary of the method: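 Complex spheroids combining tumor cells with HUVEC endothelial cells and human MSCs, at 37 degrees C, 5% CO2; agents tested alone or combined, half-log dilutions from at or near clinical Cmax, or 10 microM if Cmax unknown.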
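Also: spheroids exposed to compounds for seven days.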

O=C(c1cc(Cc2n[nH]c(=O)c3ccccc23)ccc1F)N1CCN(C(=O)C2CC2)CC1 + Cc1c(S(C)(=O)=O)c(-c2cc(F)cc(N3CCN(c4ccc(NS(=O)(=O)c5ccc(NC(CCN6CCC(C(=O)OCCCP(=O)(O)O)CC6)CSc6ccccc6)c(S(=O)(=O)C(F)(F)F)c5)cc4)CC3)c2)c(-c2ccc(Cl)cc2)n1C(C)C
IC50 (second compound 0.1 µM): 944 nM
IC50 (second compound 0.316 µM): 1110 nM
IC50 (second compound 1 µM): 773 nM
IC50 (second compound 3.16 µM): < 31.6 nM
IC50 (second compound 10 µM): 1480 nM
viability, T/C (second compound 0.1 µM, first compound 0.0316 µM): 89.2%
viability, T/C (second compound 0.1 µM, first compound 0.1 µM): 53.2%
viability, T/C (second compound 0.1 µM, first compound 0.316 µM): 56.9%
viability, T/C (second compound 0.1 µM, first compound 1 µM): 59.6%
viability, T/C (second compound 0.1 µM, first compound 3.16 µM): 37.8%
viability, T/C (second compound 0.1 µM, first compound 10 µM): 9.27%
viability, T/C (second compound 0.316 µM, first compound 0.0316 µM): 55.8%
viability, T/C (second compound 0.316 µM, first compound 0.1 µM): 51.1%
viability, T/C (second compound 0.316 µM, first compound 0.316 µM): 69.8%
viability, T/C (second compound 0.316 µM, first compound 1 µM): 49.3%
viability, T/C (second compound 0.316 µM, first compound 3.16 µM): 29.1%
viability, T/C (second compound 0.316 µM, first compound 10 µM): 8.15%
viability, T/C (second compound 1 µM, first compound 0.0316 µM): 51.5%
viability, T/C (second compound 1 µM, first compound 0.1 µM): 55.8%
viability, T/C (second compound 1 µM, first compound 0.316 µM): 57.2%
viability, T/C (second compound 1 µM, first compound 1 µM): 48.2%
viability, T/C (second compound 1 µM, first compound 3.16 µM): 20.5%
viability, T/C (second compound 1 µM, first compound 10 µM): 5.17%
viability, T/C (second compound 3.16 µM, first compound 0.0316 µM): 42%
viability, T/C (second compound 3.16 µM, first compound 0.1 µM): 39%
viability, T/C (second compound 3.16 µM, first compound 0.316 µM): 44.3%
viability, T/C (second compound 3.16 µM, first compound 1 µM): 32.6%
viability, T/C (second compound 3.16 µM, first compound 3.16 µM): 19.3%
viability, T/C (second compound 3.16 µM, first compound 10 µM): 4.24%
viability, T/C (second compound 10 µM, first compound 0.0316 µM): 86.9%
viability, T/C (second compound 10 µM, first compound 0.1 µM): 85.8%
viability, T/C (second compound 10 µM, first compound 0.316 µM): 59.9%
viability, T/C (second compound 10 µM, first compound 1 µM): 70%
viability, T/C (second compound 10 µM, first compound 3.16 µM): 13.5%
viability, T/C (second compound 10 µM, first compound 10 µM): 1.63%
